Data as given in patent US9353101B2 (Merck Sharp & Dohme Corp., priority 2012, dated 2016).

Assays:
[1] = cited from earlier work
[2] = patients given torcetrapib and atorvastatin concomitantly compared with atorvastatin alone; cited from earlier work
CETP = CETP (Homo sapiens (Human), UniProt P11597); experiment: Scintillation Proximity Assay (SPA) for CETP Activity; assay type: biochemical; details: 15 nM CETP, biotinylated LDL, 3H-cholesterol ester HDL; read-out: SPA IC50 (CETP Inhibition)
Experimental: Protocol: Scintillation Proximity Assay (SPA) for CETP Activity
First, low density lipoprotein (LDL) (Meridian) was biotinylated by incubating LDL with biotin for 1 hour on ice, after which it was dialyzed to remove free biotin. Then compounds at varying concentrations were incubated with 15 nM CETP (reagent production group, In Vitro Pharmacology, MRL Rahway) and 50 ug/ml of the biotinylated LDL in 50 mM HEPES, 150 mM NaCl, pH 7.4, for 1 hour at 37° C. The reaction was started by adding ^3H-cholesterol ester high density lipoprotein (HDL) (American Radiochemicals Corp) at a concentration of ˜0.6 nM. The reaction proceeded for 2 hours at 37° C., after which time it was quenched by the addition of 12% acetic acid. PVT streptavadin-coated scintillation proximity beads, which had been brought to room temperature, were then added at a concentration of 4 mg/ml. The assay was then mixed and counted after one half hour in a Microbeta plate reader.

[3] = patients, anacetrapib with baseline statin therapy compared with just a statin

Chain of CETP (P11597 18-493): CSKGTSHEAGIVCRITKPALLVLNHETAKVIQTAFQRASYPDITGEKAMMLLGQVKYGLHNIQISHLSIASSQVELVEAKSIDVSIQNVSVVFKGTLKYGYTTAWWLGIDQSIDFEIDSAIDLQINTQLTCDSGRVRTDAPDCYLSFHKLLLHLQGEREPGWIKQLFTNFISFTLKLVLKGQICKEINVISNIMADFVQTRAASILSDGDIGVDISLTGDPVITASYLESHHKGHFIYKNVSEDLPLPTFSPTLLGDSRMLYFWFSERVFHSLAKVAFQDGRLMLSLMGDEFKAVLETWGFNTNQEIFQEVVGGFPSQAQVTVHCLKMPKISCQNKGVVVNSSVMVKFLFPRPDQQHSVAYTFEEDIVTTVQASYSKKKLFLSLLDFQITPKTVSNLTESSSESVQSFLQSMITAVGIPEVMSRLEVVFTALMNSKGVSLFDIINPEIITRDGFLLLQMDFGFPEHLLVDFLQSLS

For `COc1cc(F)c(C(C)C)cc1-c1ccc(C(F)(F)F)cc1CN1C(=O)O[C@H](c2cc(C(F)(F)F)cc(C(F)(F)F)c2)[C@@H]1C` [anacetrapib], the increase in mortality ([1]; patients treated with anacetrapib) is given as “unlikely”, the “decrease of LDL-C” value [1, 3] is given as 40% and the “increase of HDL-C” value [1, 3] is given as 138%.

In the case of `CCOC(=O)N1c2ccc(C(F)(F)F)cc2[C@@H](N(Cc2cc(C(F)(F)F)cc(C(F)(F)F)c2)C(=O)OC)C[C@H]1CC` [torcetrapib], the incidence of mortality [2] is given as “higher incidence of mortality”.

For `COc1ncc(Cl)cc1-c1cnc(N2CCOCC2)nc1CN1C(=O)O[C@H](c2cc(C(F)(F)F)cc(C(F)(F)F)c2)[C@@H]1C` [Example 11, (4S,5R)-5-[3,5-Bis(trifluoromethyl)phenyl]-3-{[5-(5-chloro-2-methoxypyridin-3-yl)-2-(morpholin-4-yl)pyrimidin-4-yl]methyl}-4-methyl-1,3-oxazolidin-2-one], the IC50 (CETP) was 671 nM.
